Measured values from ChEMBL document CHEMBL5154712, “Activators of the Anticipatory Unfolded Protein Response with Enhanced Selectivity for Estrogen Receptor Positive Breast Cancer” (J Med Chem, 2022).
Active and inactive are the calls of the source. The calls are words filed in the database; no cut-off is given here.

Assays:
MCF7 [1] = experiment: Anticancer activity against ERalpha positive human MCF7 cells assessed as cell growth inhibition incubated for 72 hrs by alamar blue assay; assay type: functional, cell-based; details: MCF7, 72 h
MCF7 [2] = experiment: Anticancer activity against human MCF7 cells assessed as cell growth inhibition incubated for 24 hrs by alamar blue assay; assay type: functional, cell-based; details: MCF7, 24 h
T47D [3] = experiment: Anticancer activity against human T47D cells harbouring ERalphaY537S mutant assessed as cell growth inhibition incubated for 24 hrs by alamar blue assay; assay type: functional, cell-based
T47D [4] = experiment: Anticancer activity against human T47D cells harbouring ERalphaD538G mutant assessed as cell growth inhibition incubated for 24 hrs by alamar blue assay; assay type: functional, cell-based
MCF7 [5] = experiment: Anticancer activity against human MCF7 cells assessed as reduction in cell viability incubated for 24 hrs in presence of 10% CD-FBS by alamar blue assay; assay type: functional, cell-based
T47D [6] = experiment: Anticancer activity against ERalpha positive human T47D cells assessed as cell growth inhibition incubated for 24 hrs by alamar blue assay; assay type: functional, cell-based
MDA-MB-436 [7] = experiment: Anticancer activity against ERalpha negative human MDA-MB-436 cells assessed as cell growth inhibition incubated for 24 hrs by alamar blue assay; assay type: functional, cell-based; details: MDA-MB-436, 24 h
MDA-MB-231 [8] = experiment: Anticancer activity against ERalpha negative human MDA-MB-231 cells assessed as cell growth inhibition incubated for 24 hrs by alamar blue assay; assay type: functional, cell-based; details: MDA-MB-231, 24 h
MDA-MB-231 [9] = experiment: Anticancer activity against ERalpha negative human MDA-MB-231 cells assessed as cell growth inhibition incubated for 72 hrs by alamar blue assay; assay type: functional, cell-based; details: MDA-MB-231, 72 h
MDA-MB-231 [10] = experiment: Anticancer activity against ERalpha negative human MDA-MB-231 cells assessed as cell growth inhibition incubated for 168 hrs by alamar blue assay; assay type: functional, cell-based; details: MDA-MB-231, 168 h
MDA-MB-436 [11] = experiment: Anticancer activity against ERalpha negative human MDA-MB-436 cells assessed as cell growth inhibition incubated for 72 hrs by alamar blue assay; assay type: functional, cell-based; details: MDA-MB-436, 72 h
HCT-116 [12] = experiment: Anticancer activity against ERalpha negative human HCT-116 cells assessed as cell growth inhibition incubated for 24 hrs by alamar blue assay; assay type: functional, cell-based; details: HCT-116, 24 h
HCT-116 [13] = experiment: Anticancer activity against ERalpha negative human HCT-116 cells assessed as cell growth inhibition incubated for 72 hrs by alamar blue assay; assay type: functional, cell-based; details: HCT-116, 72 h
HCT-116 [14] = experiment: Anticancer activity against ERalpha negative human HCT-116 cells assessed as cell growth inhibition incubated for 168 hrs by alamar blue assay; assay type: functional, cell-based; details: HCT-116, 168 h
HT-29 [15] = experiment: Anticancer activity against ERalpha negative human HT-29 cells assessed as cell growth inhibition incubated for 24 hrs by alamar blue assay; assay type: functional, cell-based; details: HT-29, 24 h
HT-29 [16] = experiment: Anticancer activity against ERalpha negative human HT-29 cells assessed as cell growth inhibition incubated for 72 hrs by alamar blue assay; assay type: functional, cell-based; details: HT-29, 72 h
[17] = Selectivity ratio of IC50 for human MDA-MB-231 cells to IC50 for human MCF7 cells; assay type: functional
[18] = Selectivity ratio of IC50 for human MDA-MB-436 cells to IC50 for human MCF7 cells; assay type: functional
[19] = Selectivity ratio of IC50 for human HCT-116 cells to IC50 for human MCF7 cells; assay type: functional
[20] = Selectivity ratio of IC50 for human HT-29 cells to IC50 for human MCF7 cells; assay type: functional
[21] = Cmax in CD-1 mouse at 20 mg/kg, iv by LC-MS/MS analysis; assay type: ADME, organism-based; set-up: dose 20 mg/kg, route iv; details: CD-1, mouse, in vivo, read-out: Cmax
[22] = Oral bioavailability in CD-1 mouse at 40 mg/kg by LC-MS/MS analysis; assay type: ADME, organism-based; details: in vivo
[23] = Stability of the compound in simulated gastric fluid assessed as half life measured upto 120 mins by LC-MS/MS analysis; assay type: ADME
[24] = AUC in CD-1 mouse at 20 mg/kg, iv by LC-MS/MS analysis; assay type: ADME, organism-based; set-up: dose 20 mg/kg, route iv; details: CD-1, mouse, in vivo, read-out: AUC
[25] = Half life in CD-1 mouse at 20 mg/kg, iv by LC-MS/MS analysis; assay type: ADME, organism-based; details: CD-1, mouse, in vivo
[26] = MRT in CD-1 mouse at 20 mg/kg, iv by LC-MS/MS analysis; assay type: ADME, organism-based; details: CD-1, mouse, in vivo, read-out: MRT
[27] = Clearance in CD-1 mouse at 20 mg/kg, iv by LC-MS/MS analysis; assay type: ADME, organism-based; details: in vivo
[28] = Volume of distribution at steady state in CD-1 mouse at 20 mg/kg, iv by LC-MS/MS analysis; assay type: ADME, organism-based; details: CD-1, mouse, in vivo, read-out: Vdss
[29] = Toxicity in po dosed CD-1 mouse assessed as maximum tolerated dose administered as single dose; assay type: organism-based; details: in vivo
[30] = Toxicity in iv dosed CD-1 mouse assessed as maximum tolerated dose administered as single dose; assay type: organism-based; details: in vivo
[31] = Toxicity in iv dosed Sprague-Dawley rat assessed as maximum tolerated dose administered as single dose; assay type: organism-based; details: in vivo
MCF7 [32] = experiment: Antitumor activity against human MCF7 cells xenografted in athymic nude mouse assessed as reduction in tumor growth at 5 mg/kg, iv administered once a week for three doses administered for 14 days; assay type: functional, organism-based; details: time 14.0 day
[33] = Toxicity in athymic nude mouse xenografted with human MCF7 cells assessed as change in body weight at 5 mg/kg, iv administered once a week for three doses administered for 14 days; assay type: organism-based; details: in vivo, 336 h, time 14 day
MCF7 [34] = experiment: Anticancer activity against human MCF7 cells assessed as reduction in cell viability incubated for 24 hrs in presence of 10% CD-FBS and 17-beta-estradiol by alamar blue assay; assay type: functional, cell-based
[35] = Stability of the compound in simulated gastric fluid assessed as compound remaining measured after 120 mins by LC-MS/MS; assay type: ADME; details: read-out: Stability

`O=C1Nc2c(C(F)(F)F)cccc2[C@@]1(c1ccc(O)cc1)N1CC(F)(F)C1` showed an IC50 (MCF7 [1]) of 0.117 µM.
For `O=C1Nc2c(C(F)(F)F)cccc2C1(c1ccc(OC(F)(F)F)cc1)c1ccc(O)cc1F` (stereo not drawn), the IC50 (MCF7 [2]) was 0.177 µM.
`O=C1Nc2c(C(F)(F)F)cccc2[C@]1(c1ccc(O)cc1)C1CCC(F)(F)CC1` gave an IC50 (T47D [3]) of 0.007 µM, an IC50 (MCF7 [2]) of 0.017 µM and an IC50 (T47D [4]) of 0.009 µM. The Activity (MCF7 [5]) was “Active”, the IC50 (MCF7 [1]) was 0.017 µM and the IC50 (T47D [6]) was 0.016 µM. It also gave an IC50 (MDA-MB-436 [7]) of 64 µM, an IC50 (MDA-MB-231 [8]) of 55 µM and an IC50 (MDA-MB-231 [9]) of 55 µM. It also gave an IC50 (MDA-MB-231 [10]) of 33 µM, an IC50 (MDA-MB-436 [11]) of 55 µM and an IC50 (HCT-116 [12]) of 55 µM. The IC50 (HCT-116 [13]) was 55 µM, the IC50 (HCT-116 [14]) was 42 µM and the IC50 (HT-29 [15]) was 33 µM. For the same compound, the IC50 (HT-29 [16]) was 27 µM, the “Ratio IC50” value [17] was 1900 and the “Ratio IC50” value [18] was 3200. For the same compound, the “Ratio IC50” value [19] was 3200, the “Ratio IC50” value [20] was 1600 and the Cmax [21] was 14700 ng/mL. For the same compound, the bioavailability [22] was 6%, the half-life [23] was 56 min and the AUC [24] was 6300 ng·h/mL. For the same compound, the half-life [25] was 18 min, the MRT [26] was 54 min and the clearance [27] was 52 mL/min/kg. For the same compound, the Vd [28] was 2.8 L/kg, the MTD [29] was > 200 mg/kg and the MTD [30] was 95 mg/kg. The MTD [31] was > 50 mg/kg, the Activity (MCF7 [32]) was “Active” and the Activity [33] was “Non-Toxic”. For the same compound, the Activity (MCF7 [34]) was “Active” and the remaining at 2 h [35] was 13%.
In the case of `O=C1Nc2c(C(F)(F)F)cccc2C1(c1ccc(O)cc1)N1CCCCCC1` (stereo not drawn), the IC50 (MCF7 [2]) is reported as > 1 µM.
For `O=C1Nc2c(C(F)(F)F)cccc2C1(c1ccc(OC(F)(F)F)cc1)c1cc(F)c(O)c(F)c1` (stereo not drawn), the IC50 (MCF7 [2]) was > 1 µM.
With `O=C1Nc2c(C(F)(F)F)cccc2C1(c1ccc(OC(F)(F)F)cc1)c1ccc(OC(F)(F)F)cc1` the IC50 (MCF7 [2]) was > 1 µM.
For `Cc1cc(C2(c3ccc(OC(F)(F)F)cc3)C(=O)Nc3c(C(F)(F)F)cccc32)cc(C)c1O` (stereo not drawn), the IC50 (MCF7 [2]) was > 1 µM.
With `O=C1Nc2c(C(F)(F)F)cccc2C1(c1ccc(O)cc1)N1CCC(OC(F)(F)F)CC1` (stereo not drawn) the IC50 (MCF7 [2]) was 0.135 µM.
`O=C1Nc2c(C(F)(F)F)cccc2C1(c1ccc(O)cc1)N1CCC(F)(F)CC1` (stereo not drawn) gave an IC50 (MCF7 [2]) of 0.035 µM.
In the case of `O=C1Nc2c(C(F)(F)F)cccc2C1(c1ccc(O)cc1)N1CCOCC1` (stereo not drawn), the IC50 (MCF7 [2]) is reported as > 1 µM.
With `O=C1Nc2c(C(F)(F)F)cccc2[C@@]1(c1ccc(O)cc1)N1CCCC(F)(F)C1` the IC50 (MCF7 [2]) was 0.039 µM, the IC50 (MCF7 [1]) was 0.033 µM and the IC50 (MDA-MB-231 [8]) was 49 µM. For the same compound, the IC50 (MDA-MB-231 [9]) was 22 µM, the IC50 (HCT-116 [12]) was 38 µM and the IC50 (HCT-116 [13]) was 21 µM. For the same compound, the IC50 (HT-29 [15]) was 29 µM, the IC50 (HT-29 [16]) was 25 µM and the “Ratio IC50” value [17] was 700. The “Ratio IC50” value [19] was 600, the “Ratio IC50” value [20] was 800 and the remaining at 2 h [35] was 0%.
In the case of `CC1CN(C2(c3ccc(O)cc3)C(=O)Nc3c(C(F)(F)F)cccc32)CCC1(F)F` (stereo not drawn), the IC50 (MCF7 [2]) is reported as 0.07 µM.
For `CC(C)c1cc(C2(c3ccc(OC(F)(F)F)cc3)C(=O)Nc3c(C(F)(F)F)cccc32)cc(C(C)C)c1O` (stereo not drawn), the IC50 (MCF7 [2]) was > 1 µM.
